Values of other authors, collected in Sander's compilation of Henry's law constants (doi:10.1021/es00169a013).

Experiment: Henry solubility constant Hcp at 298.15 K (mol/(m3 Pa))
Settings: reference: Dunnivant et al. (1988); cited value
In the case of `Clc1ccc(-c2ccc(Cl)cc2)cc1` [4,4'-dichlorobiphenyl], the “Henry solubility constant Hcp” value is given as 0.068. In the case of `Clc1cccc(Cl)c1-c1c(Cl)cccc1Cl` [2,2',6,6'-tetrachlorobiphenyl], the “Henry solubility constant Hcp” value is given as 0.067. For `Clc1cc(Cl)c(-c2cc(Cl)c(Cl)cc2Cl)cc1Cl` [2,2',4,4',5,5'-hexachlorobiphenyl], the “Henry solubility constant Hcp” value is listed as 0.08. For `Clc1cc(Cl)c(-c2c(Cl)cc(Cl)cc2Cl)c(Cl)c1` [2,2',4,4',6,6'-hexachlorobiphenyl], the “Henry solubility constant Hcp” value is listed as 0.086.
